Reference: publication PMC12713470, “Design and Synthesis of Novel Chalcone Derivatives Targeting Bladder and Liver Cancer: Cytotoxicity Evaluation and Preliminary Mechanistic Studies” (ACS Omega, 2025)

Assays:
HepG2 cells = experiment: Morphology assay, HepG2; assay type: cell-based, human; details: 2.15-18.50 μM, 48 h
Procedure: For the morphology assay, 2.0 × 10^5 cells were cultured in 12-well plates for 24 h to allow adherence. After this period, the cells were treated with the chalcone at concentrations of 2.15, 4.62, 9.25, and 18.50 μM for 48 h. After treatment, the cells were examined and photographed under an inverted microscope at 200× magnification.

[1] = tested on: T24: human urinary bladder carcinoma cells; experiment: MTT cytotoxicity assay on T24 cells; assay type: cell-based
Procedure: (§1) Cytotoxicity was determined using the MTT colorimetric assay, and half-maximal inhibitory concentrations (IC50, μM) were obtained for all cell lines (Table ). The selectivity index (SI) was calculated as the ratio of IC50 MRC-5/IC50 cancer cell line. Doxorubicin was employed as a positive control due to its broad-spectrum clinical use, either alone or in combination, against hepatocellular, ovarian, cervical, and bladder cancers. −
(§2) In vitro biological assays were performed by using five human cell lines for cytotoxicity evaluation. HepG2 cells (ATCC HB-8065), derived from a human hepatocellular carcinoma of the liver (person), were cultured in Dulbecco’s modified Eagle medium (DMEM) supplemented with 5% fetal bovine serum (FBS), penicillin/streptomycin (100 IU/mL), and amphotericin B (5 μg/mL), in a humidified incubator with 5% CO2 at 37 °C. These cells were plated at a concentration of 2.0 × 10^4 cells/well in 96-well microplates. MRC-5 cells (ATCC CCL-171), derived from human lung fibroblasts of a […] fetus, were cultured under the same conditions and plated at 1.0 × 10^4 cells/well. T24 cells (ATCC HTB-4), established from a transitional cell carcinoma of the bladder (person), were also cultured under identical conditions and plated at a density of 1.0 × 10^4 cells/well. TOV-21G cells (ATCC CRL-11730), derived from a primary malignant ovarian adenocarcinoma (person), were maintained in DMEM with the same supplementation and environmental conditions and plated at 5.0 × 10^4 cells/well. […]
(§3) HeLa, HepG2, MRC-5, T24, and TOV-21G cells were suspended in a culture medium supplemented with 5% fetal bovine serum (FBS) and seeded into 96-well microplates. The plates were incubated under a humidified atmosphere containing 5% CO2 at 37 °C for 24 h, allowing for adherence and monolayer formation. , Eight serial dilutions of the test samples, previously solubilized in dimethyl sulfoxide (DMSO), were prepared in DMEM supplemented with 1% FBS, covering a concentration range from […], and the results were converted to […]. The volume of DMSO in each well was limited to a final concentration not exceeding 2%. Following monolayer formation, the culture medium was aspirated and replaced with 100 μL of the diluted test samples and 100 μL of DMEM containing 1% FBS. The plates were then incubated under the same atmospheric and temperature conditions.
(§4) Two hours prior to end point reading, 20 μL of MTT [3-(4,5-dimethylthiazol-2-yl)-2,5-diphenyltetrazolium bromide] solution (1.0 mg/mL in sterile phosphate-buffered saline, Sigma-Aldrich) was added to each well. The incubation period following sample addition varied according to the cell line: 24 h for MRC-5, 48 h for T24, and 72 h for HeLa, HepG2, and TOV-21G. After the appropriate incubation, absorbance was measured by using a VICTOR X3 microplate reader (PerkinElmer), and data were processed with WorkOut 2.5 software at a wavelength of 490 nm. Formazan formation, resulting from the MTT reduction by metabolically active cells, was used as an indirect measure of cell viability. The percentage of cytotoxicity was calculated using the equation % cytotoxicity = [(A – B)/A] × 100, where A is the optical density (OD4 9 0) of untreated control cells and B is the OD4 9 0 of treated cells.
(§5) Cytotoxicity was expressed as the 50% cytotoxic concentration (CC5 0), representing the concentration of sample required to reduce cell viability by 50% relative to that of the untreated control.

T24 cells [2] = experiment: Cell migration (wound), T24; assay type: cell-based, human; details: highest concentration tested, 48 h
Procedure: The cells were cultured in DMEM (Sigma-Aldrich, St. Louis, USA) and supplemented with 10% fetal bovine serum (Cultilab Ltda., Campinas, Brazil) and antibiotics (amphotericin). They were incubated at 37 °C in a humidified atmosphere with 5% CO2. Control cell groups, which were not exposed to the compound, were included in the experiments and were conducted in triplicate. The chalcone was dissolved in dimethyl sulfoxide (DMSO) for the assays.
Cells were seeded in 24-well plates at a density of 1.0 × 10^5 cells per well and incubated for 24 h to allow attachment. After this incubation, a sterile 200 μL pipet tip was used to scrape the cell monolayer, creating a wound. The initial wound area was photographed using an inverted microscope equipped with a camera. Following this, the cells were washed with Hanks’ solution and treated with the glycosylated chalcone at concentrations of 2.15, 4.62, 9.25, and 18.50 μM for 48 h. At the end of the treatment period, the cells were photographed again, and migration into the wound area was assessed. The percentage of cell migration was quantified using ImageJ and GraphPad Prism software.

[3] = tested on: HeLa: human cervical adenocarcinoma cells; experiment: MTT cytotoxicity assay on HeLa cells; assay type: cell-based
Procedure: as §1, §2, §3, §4, §5

T24 cells [4] = experiment: Cell cycle progression (propidium iodide flow cytometry), T24; assay type: cell-based, human; details: after treatment, 48 h
Procedure: Cells were seeded in 12-well plates at a density of 1.0 × 10^5 cells per well and incubated for 24 h to allow adhesion. Following this initial incubation, the cells were treated with the chalcone at concentrations of 0.92, 2.15, 4.62, and 9.25 μM for an additional 48 h. After the treatment, the cells were washed, trypsinized, and collected along with the culture supernatant into Falcon tubes. The samples were then centrifuged at 1000 rpm for 10 min. After centrifugation, the supernatant was discarded, and the cell pellets were resuspended in 200 μL of propidium iodide staining solution before being transferred to cytometry tubes. These tubes were incubated on ice, in the dark, for 30 min. Flow cytometric analysis was performed on 20,000 events using a BD FACScalibur flow cytometer (BD Biosciences, Franklin Lakes, NJ, USA), and the data were analyzed using FlowJo software.

Question: With `CCCc1cc(/C=C/C(=O)c2ccc(C)cc2)c(OC)c(OC)c1` [compound 3, (E)-3-(2,3-Dimethoxy-5-propylphenyl)-1-(p-tolyl)-prop-2-en-1-one] as the compound, how does the “morphology, HepG2” value (HepG2 cells) read?
Answer: Its value is “reduction in cell density was observed”.

Question: What about the IC50 ([1]; Homo sapiens, T-24, MTT, 48 h incubation, n = 3, NA: noncytotoxic at the concentrations tested) of the same compound?
Answer: The IC50 was 5 ± 1.6 µM.

Question: What about the “SI (T24)” value ([1]; IC50 MRC-5/IC50 T24) of the same compound?
Answer: The value was 11.1.

Question: What about the “potency against T24 relative to hit 1” value ([1]; ratio of IC50 values, 1 vs 3) of the same compound?
Answer: Its value is “more than 32 times”.

Question: And the “cell migration, T24” value (T24 cells [2])?
Answer: Its value is “significant decrease was observed”.

Question: What about the IC50 ([3]; Homo sapiens, HeLa, MTT, 72 h incubation, n = 3, NA: noncytotoxic at the concentrations tested) of the same compound?
Answer: Its IC50 is 5.9 ± 1.6 µM.

Question: And the “SI (HeLa)” value ([3]; IC50 MRC-5/IC50 HeLa)?
Answer: Its value is 9.3.

Question: What about the “cell cycle distribution, T24” value (T24 cells [4]) of the same compound?
Answer: The value was “no difference was observed after treatment”.
